Data: patent US20210361774A1, “DEGRADERS OF WILD-TYPE AND MUTANT FORMS OF LRRK2” (DANA-FARBER CANCER INSTITUTE, INC., priority 2018, published 2021)

Key:
[1] = system: LRRK2; test: Cellular degradation of LRRK2, Western blot in MEFs; format: cell-based, Mouse; conditions: for level of LRRK2 (degradation): after 48 hours (FIG. 18); for degradation of LRRK2 (total level): Western blot, time course, 0 nM-1000 nM
Experimental: (§1) Cell lines used: Mouse embryonic fibroblast (MEF) WT, LRRK2 homozygous knock-ins in MEFs [R1441C; VPS35N(D620N); G2019S].
(§2) Tested concentration of LRRK2 degraders: 0 nM, 10 nM, 30 nM, 100 nM, 300 nM, 1000 nM. Additional concentrations tested for inventive compound 3: 2 uM, 5 uM and 10 uM.
(§3) Complete growth medium: DMEM supplemented with: 10% Fetal Bovine Serum; 1% pen/strep; 1% L-Glutamine; 1% MEM Non-essential Amino Acid Solution; 1% sodium pyruvate.
(§4) Commercial and in-house purified antibodies: • (a) Mouse anti-LRRK2/Dardarin antibody from Antibodies, Inc. (Cat #75-253). • (b) Rabbit monoclonal antibodies for total LRRK2 (UDD3) and pS935-LRRK2 (UDD2) were purified at the University of Dundee (as described in Dzamko et al., PLoS One 7(6): e39132 (2012). • (c) Loading controls: anti-α-tubulin (Cell Signaling Technology #5174); anti-GAPDH (Santa Cruz Biotechnology Cat. #sc-32233) • (d) (p)Rab10 antibodies: rabbit anti-RAB10 (phospho T73) antibody [MJF-R21] (ab230261); mouse MJFF-total Rab10 monoclonal antibody were generated by nanoTools (www.nanotools.de); rabbit Rab10 total was from Cell Signaling Technology (Rab10 (D36C4) XP® Rabbit mAb #8127)
(§5) Treatment: WT MEF, R1441C, VPS35N and G2019S mutants' cells were plated at equal density into 6-well plates in a final volume of 3 mL of complete growth medium/well. Degraders were reconstituted in DMSO and used at 1:1000 in cells i.e. 3 μl/3 ml. Treatment began when cells were >60% confluent, starting from a 48-hour time point, followed by a 24-hour time point, a 6-hour time point and finally a 1-hour time point.
(§6) Cell lysis: Media were aspirated, plates were placed on ice and cells were washed with Dulbecco's phosphate-buffered saline (DPBS). Fifty microliters of an ice-cold lysis buffer containing 50 mM Tris-HCl, pH 7.5, 1% (v/v) Triton X-100, 1 mM ethylene glycol-bis(μ-aminoethyl ether)-N,N,N′,N′-tetraacetic acid (EGTA), 1 mM sodium orthovanadate, 50 mM NaF, 0.1% (v/v) 2-mercaptoethanol, 10 mM 2-glycerophosphate, 5 mM sodium pyrophosphate, 0.1 μg/ml microcystin-LR (Enzo Life Sciences), 270 mM sucrose and complete EDTA-free protease inhibitor cocktail (Sigma-Aldrich Cat #11836170001) was added per well. Lysates were centrifuged at 20,817 g (14,000 rpm) for 15 min at 4° C. and supernatants were used to determine protein concentration using Bradford assay (Pierce™ Coomassie (Bradford) Protein Assay Kit, Thermo Scientific™ Cat #23200) and for Western blot analysis.
(§7) Western blot analysis: Cell lysates were mixed with 4× SDS-PAGE sample buffer [50 mM Tris-HCl, pH 6.8, 2% (w/v) SDS, 10% (v/v) glycerol, 0.02% (w/v) Bromophenol Blue and 1% (v/v) 2-mercaptoethanol] to a final total protein concentration of 1 μg/μl and heated at 95° C. for 5 minutes. Twenty micrograms of samples were loaded onto NuPAGE™ 4-12% Bis-Tris gradient gels (Life Technologies) along with 3 μl of BIO-RAD protein marker (Precision Plus Protein™ All Blue Prestained Protein Standards #1610373 kDa), gels were run in duplicates at 110V for 2 hours and 30 minutes with the NuPAGE™ MOPS SDS running buffer (Life Technologies, Cat #NP0001-02). After electrophoresis, the separated proteins were transferred onto the nitrocellulose membrane (GE Healthcare, Amersham Protran 0.45 μm NC) at 90 V for 90 minutes. Transferred membranes were briefly stained with Ponceau S stain and divided into 3 strips, as described earlier in Fan et al., Biochem. J. 475:23-44 (2018). Briefly, upper strip was cut from the top of the membrane to 75 kDa, middle strip cut was between 75 kDa—30 kDa and bottom strip cut was from 30 kDa—to the bottom of the membrane. Membrane strips were blocked at room temperature with 5% (w/v) dried skimmed milk dissolved in TBS-T [20 mM Tris-HCl, pH 7.5, 150 mM NaCl and 0.1% (v/v) Tween® 20] for 1 hour, washed four times with ten minutes intervals in TBS-T and incubated with primary antibodies diluted in 5% BSA (bovine serum albumin) in TBS-T overnight at 4° C. […]

[2] = system: LRRK2 pS935; test: Inhibition of phosphorylation of S935, Western blot in MEFs; format: cell-based, Mouse; conditions: for inhibition of phosphorylation of S935: Western blot, time course, 0 nM-1000 nM
Experimental: as §1, §2, §3, §4, §5, §6, §7

[3] = system: Rab10 (phospho T73); test: Inhibition of phosphorylation of Rab10, Western blot in MEFs; format: cell-based, Mouse; conditions: for inhibition of phosphorylation of Rab10: Western blot, time course, 0 nM-1000 nM
Experimental: as §1, §2, §3, §4, §5, §6, §7

[4] = target: T1, LRRK2 wt (Homo sapiens, UniProt Q5S007); test: IC50 experiments, Invitrogen Adapta assay, LRRK2 wt; format: biochemical
T1 construct: purchased Invitrogen
Experimental: (§8) IC50 experiments were performed using Invitrogen™'s Adapta™ assay.

[5] = target: T2, LRRK2 G2019S (Homo sapiens, UniProt Q5S007, G2019S); test: IC50 experiments, Invitrogen Adapta assay, LRRK2 G2019S; format: biochemical
T2 construct: purchased Invitrogen
Experimental: as §8

T1 sequence (Q5S007 whole entry): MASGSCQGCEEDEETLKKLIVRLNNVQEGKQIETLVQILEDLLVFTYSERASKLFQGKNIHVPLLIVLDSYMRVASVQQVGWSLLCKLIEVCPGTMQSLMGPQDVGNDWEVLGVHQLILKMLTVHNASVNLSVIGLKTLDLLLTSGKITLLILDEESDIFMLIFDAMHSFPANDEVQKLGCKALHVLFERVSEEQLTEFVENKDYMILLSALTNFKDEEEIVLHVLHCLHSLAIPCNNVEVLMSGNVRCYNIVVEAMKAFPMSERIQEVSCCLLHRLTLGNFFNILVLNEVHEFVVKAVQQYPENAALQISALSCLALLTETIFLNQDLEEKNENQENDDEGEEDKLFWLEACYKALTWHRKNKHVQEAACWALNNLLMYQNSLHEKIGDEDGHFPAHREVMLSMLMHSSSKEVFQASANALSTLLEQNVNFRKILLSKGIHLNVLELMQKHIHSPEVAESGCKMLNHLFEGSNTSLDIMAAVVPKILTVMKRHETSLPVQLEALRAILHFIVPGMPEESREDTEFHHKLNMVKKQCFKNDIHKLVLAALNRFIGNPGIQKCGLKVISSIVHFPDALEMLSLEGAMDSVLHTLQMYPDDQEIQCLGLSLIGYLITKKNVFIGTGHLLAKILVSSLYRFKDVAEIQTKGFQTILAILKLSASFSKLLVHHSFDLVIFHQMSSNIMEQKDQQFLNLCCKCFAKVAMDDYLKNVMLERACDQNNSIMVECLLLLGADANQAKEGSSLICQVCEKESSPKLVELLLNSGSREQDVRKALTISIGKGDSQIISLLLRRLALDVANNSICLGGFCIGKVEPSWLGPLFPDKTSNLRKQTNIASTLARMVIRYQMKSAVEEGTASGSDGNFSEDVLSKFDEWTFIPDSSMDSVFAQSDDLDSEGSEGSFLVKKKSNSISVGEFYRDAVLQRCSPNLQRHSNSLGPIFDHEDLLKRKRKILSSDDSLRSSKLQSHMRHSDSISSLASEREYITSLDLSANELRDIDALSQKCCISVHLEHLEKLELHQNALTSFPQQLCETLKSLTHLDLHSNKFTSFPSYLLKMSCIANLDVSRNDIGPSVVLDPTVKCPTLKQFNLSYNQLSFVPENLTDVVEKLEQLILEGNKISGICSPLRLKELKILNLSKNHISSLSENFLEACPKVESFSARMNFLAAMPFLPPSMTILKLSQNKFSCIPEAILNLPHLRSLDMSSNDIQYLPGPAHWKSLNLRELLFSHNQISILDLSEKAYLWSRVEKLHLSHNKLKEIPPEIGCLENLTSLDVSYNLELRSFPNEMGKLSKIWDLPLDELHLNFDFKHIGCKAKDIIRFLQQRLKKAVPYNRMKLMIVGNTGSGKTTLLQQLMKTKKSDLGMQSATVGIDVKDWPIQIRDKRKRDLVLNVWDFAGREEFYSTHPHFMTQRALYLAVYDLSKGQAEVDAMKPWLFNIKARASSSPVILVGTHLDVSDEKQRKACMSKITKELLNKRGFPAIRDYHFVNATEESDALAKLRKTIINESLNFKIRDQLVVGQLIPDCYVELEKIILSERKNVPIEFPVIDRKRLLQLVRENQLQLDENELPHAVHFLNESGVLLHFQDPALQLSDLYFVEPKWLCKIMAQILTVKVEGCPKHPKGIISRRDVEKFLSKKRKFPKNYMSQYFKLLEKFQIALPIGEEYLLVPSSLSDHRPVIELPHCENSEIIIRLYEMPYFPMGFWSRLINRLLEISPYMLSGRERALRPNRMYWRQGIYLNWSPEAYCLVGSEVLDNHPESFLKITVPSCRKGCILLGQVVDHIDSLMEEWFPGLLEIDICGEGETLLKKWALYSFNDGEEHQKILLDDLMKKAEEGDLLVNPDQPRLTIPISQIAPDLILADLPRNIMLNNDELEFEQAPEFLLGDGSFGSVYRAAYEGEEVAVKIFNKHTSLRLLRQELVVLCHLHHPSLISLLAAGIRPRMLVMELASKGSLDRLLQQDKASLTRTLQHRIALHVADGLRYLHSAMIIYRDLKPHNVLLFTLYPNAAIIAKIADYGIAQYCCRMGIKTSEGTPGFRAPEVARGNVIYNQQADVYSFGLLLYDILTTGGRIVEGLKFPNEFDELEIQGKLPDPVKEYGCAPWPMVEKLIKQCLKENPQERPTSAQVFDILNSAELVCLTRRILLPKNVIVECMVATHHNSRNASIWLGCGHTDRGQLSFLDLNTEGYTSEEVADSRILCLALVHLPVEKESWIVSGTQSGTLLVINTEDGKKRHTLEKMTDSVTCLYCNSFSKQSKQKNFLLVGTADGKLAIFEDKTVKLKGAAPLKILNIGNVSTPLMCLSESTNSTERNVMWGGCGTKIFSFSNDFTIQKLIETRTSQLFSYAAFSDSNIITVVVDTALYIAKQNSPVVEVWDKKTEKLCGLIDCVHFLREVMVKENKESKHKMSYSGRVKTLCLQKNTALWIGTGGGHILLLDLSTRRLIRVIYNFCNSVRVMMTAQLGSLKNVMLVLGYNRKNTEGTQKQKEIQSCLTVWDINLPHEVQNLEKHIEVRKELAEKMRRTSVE
T2 sequence (Q5S007 whole entry G2019S): as the sequence (Q5S007 whole entry) above, with G2019S counted along it

SMILES	level of LRRK2 (degradation) [1]	inhibition of pS935 ([2]; after 48 hours (FIG. 18))	inhibition of pRAB10 ([3]; after 48 hours (FIG. 18))	degradation of LRRK2 (total level) [1]	inhibition of phosphorylation of S935 [2]	inhibition of phosphorylation of Rab10 [3]	IC50 [4] [nM]	IC50 [5] [nM]
CC1(Oc2ccc3[nH]nc(-c4cc(N5CCN(C(=O)CCOCCOCCNc6cccc7c6C(=O)N(C6CCCNC6=O)C7=O)CC5)ncn4)c3c2)CC1 (stereo not shown) [Compound 16]	did not reduce	potently inhibited	potently inhibited	–	–	–	–	–
Cc1ncsc1-c1ccc([C@@H](C)NC(=O)[C@H]2C[C@H](O)CN2C(=O)[C@H](NC(=O)CCOCCOCCOCCC(=O)N2CCN(c3cc(-c4n[nH]c5ccc(OC6(C)CC6)cc45)ncn3)CC2)C(C)(C)C)cc1 [Compound 14, (2R,4S)-1-((R)-2-(tert-butyl)-16-(4-(6-(5-(1-methylcyclopropoxy)-1H-indazol-3-yl)pyrimidin-4-yl)piperazin-1-yl)-4,16-dioxo-7,10,13-trioxa-3-azahexadecanoyl)-4-hydroxy-N—((R)-1-(4-(4-methylthiazol-5-yl)phenyl)ethyl)pyrrolidine-2-carboxamide]	–	–	–	No degradation	inhibited	inhibited	–	–
CC1(Oc2ccc3[nH]nc(-c4cc(N5CCN(C(=O)CCOCCOCCNc6cccc7c6C(=O)N(C6CCC(=O)NC6=O)C7)CC5)ncn4)c3c2)CC1 (stereo not shown) [Compound 12, 3-(7-((2-(2-(3-(4-(6-(5-(1-methylcyclopropoxy)-1H-indazol-3-yl)pyrimidin-4-yl)piperazin-1-yl)-3-oxopropoxy)ethoxy)ethyl)amino)-1-oxoisoindolin-2-yl)piperidine-2,6-dione]	–	–	–	Minor degradation	inhibited	–	2.58	2.24
CNc1nc(Nc2ccc(C(=O)N3CCN(C(=O)CCOCCOCCNc4cccc5c4C(=O)N(C4CCC(=O)NC4=O)C5=O)CC3)cc2OC)ncc1C(F)(F)F (stereo not shown) [Compound 2]	–	–	–	did not degrade	inhibited	inhibited	2	1
CC1(Oc2ccc3[nH]nc(-c4cc(N5CCN(C(=O)CCOCCOCCOCCOCCNc6cccc7c6C(=O)N(C6CCC(=O)NC6=O)C7=O)CC5)ncn4)c3c2)CC1 (stereo not shown) [Compound 9]	–	–	–	decreased	inhibited	–	1.46	0.98
CNc1nc(Nc2ccc(C(=O)N3CCN(C(=O)CCOCCOCCOCCOCCNc4cccc5c4C(=O)N(C4CCC(=O)NC4=O)C5=O)CC3)cc2OC)ncc1C(F)(F)F (stereo not shown) [Compound 1]	–	–	–	did not degrade	inhibited	inhibited	4	2
CC1(Oc2ccc3[nH]nc(-c4cc(N5CCN(C(=O)CCOCCNc6cccc7c6C(=O)N(C6CCC(=O)NC6=O)C7)CC5)ncn4)c3c2)CC1 (stereo not shown) [Compound 11, 3-(7-((2-(3-(4-(6-(5-(1-methylcyclopropoxy)-1H-indazol-3-yl)pyrimidin-4-yl)piperazin-1-yl)-3-oxopropoxy)ethyl)amino)-1-oxoisoindolin-2-yl)piperidine-2,6-dione]	–	–	–	Some degradation	inhibits	–	2.5	1.47
CNc1nc(Nc2ccc(C(=O)N3CCN(CCOCCOCCOCCNc4cccc5c4C(=O)N(C4CCC(=O)NC4=O)C5=O)CC3)cc2OC)ncc1C(F)(F)F (stereo not shown) [Compound 5]	–	–	–	did not degrade	inhibited	inhibited	–	–
Cc1ncsc1-c1ccc([C@H](C)NC(=O)[C@@H]2C[C@@H](O)CN2C(=O)[C@@H](NC(=O)CCOCCOCCOCCOCCC(=O)N2CCN(c3cc(-c4n[nH]c5ccc(OC6(C)CC6)cc45)ncn3)CC2)C(C)(C)C)cc1 [Compound 15]	–	–	–	No degradation	inhibited	inhibited	–	–
CC1(Oc2ccc3[nH]nc(-c4cc(N5CCN(C(=O)CCOCCNc6cccc7c6C(=O)N(C6CCC(=O)NC6=O)C7=O)CC5)ncn4)c3c2)CC1 (stereo not shown) [Compound 10, 2-(2,6-dioxopiperidin-3-yl)-4-((2-(3-(4-(6-(5-(1-methylcyclopropoxy)-1H-indazol-3-yl)pyrimidin-4-yl)piperazin-1-yl)-3-oxopropoxy)ethyl)amino)isoindoline-1,3-dione]	–	–	–	Less degradation	inhibited	–	1.59	1.08
CC1(Oc2ccc3[nH]nc(-c4cc(N5CCN(C(=O)CCOCCOCCOCCOCCNc6cccc7c6C(=O)N(C6CCC(=O)NC6=O)C7)CC5)ncn4)c3c2)CC1 (stereo not shown) [Compound 13]	–	–	–	Some degradation	inhibited	–	3.14	3.16
CN1CCN(c2cc(-c3n[nH]c4ccc(OC5(C)CC5)cc34)ncn2)CC1 [MLi-2 analog, 5-(1-methylcyclopropyl)oxy-3-[6-(4-methylpiperazin-1-yl)pyrimidin-4-yl]-1H-indazole, reference compound]	–	–	–	did not decrease	inhibits	–	–	–
CC1(Oc2ccc3[nH]nc(-c4cc(N5CCN(C(=O)CCOCCOCCNc6cccc7c6C(=O)N(C6CCC(=O)NC6=O)C7=O)CC5)ncn4)c3c2)CC1 (stereo not shown) [Compound 8, 2-(2,6-dioxopiperidin-3-yl)-4-((2-(2-(3-(4-(6-(5-(1-methylcyclopropoxy)-1H-indazol-3-yl)pyrimidin-4-yl)piperazin-1-yl)-3-oxopropoxy)ethoxy)ethyl)amino)isoindoline-1,3-dione]	degraded	–	–	decreased	inhibited	–	1.24	1.13
